# pEC50: −log10 of the molar value. “And” between values parts separate entries of the source, which are not always exact repeats. Identical values can stand only once.
# Experiments:
# Telomelysin (OBP-301) [1] = test: XTT assay, protection from cytopathic effect of Telomelysin in H1299 cells; type: cell-based, adenovirus; details: for Protection (%) Ave. / Protection (%): Telomelysin MOI 1, H1299, 7 days; for Protection (%): single wells, dihydrate
# Experimental: (§1) Cells frozen in liquid nitrogen were thawed in water bath at 37° C., seeded at T25 flask, and cultured at 70-90% sub-confluent monolayer. Cells were detached with trypsin, and prepared suspension at a concentration of 1.0×10^4 cells/ml.
# (§2) Cells were seeded in 96 well-plate (100 μL/well, 1000 cells/well), then cultured with 5% CO2 at 37° C.
# (§3) Viruses were diluted at MOI of 1 (OBP-301, OBP-202) in H1299 and 5 in A549 (PFU/cell). Medium in each well was removed, 150 μL of diluted virus solution was added to each well of the plate. 2 hours later, medium was aspirated and replaced with fresh medium containing 2% FCS and serially diluted CDV. Cells were incubated with 5% CO2 at 37° C. for 7 days after infection.
# (§4) 100 μL of PBS, 50 μL of XTT labeling reagent, and 1 μL of ion coupling reagent per well of plate were mixed.
# (§5) Medium in each well of plate was removed, and 150 μL of mixture prepared above was added to each well. Plate was incubated with 5% CO2 at 37° C. for 4 hours, and then calculated absorbance at 450 nm and 690 nm. Protection was determined by the formula below:
# (§6) Protection(%)={OD(AdV(+):CDV(+))−OD(AdV(+):CDV(−))}/{OD(AdV(−):CDV(+))−OD(AdV(+):CDV(−))}×100.
# ONYX-015 [2] = test: Real-time quantitative PCR, viral E1A copy number, ONYX-015 in H1299 cells; type: cell-based, adenovirus; details: for E1A copy number, % (relative to 0 uM) / E1A copy number/ng DNA: ONYX-015 MOI 10, H1299, 24 hours
# Experimental: (§7) Cells were seeded in 6-well plate (2 mL/well, 2×10^5 cells/well), and incubated with 5% CO2 at 37° C.
# (§8) Viruses were diluted at a MOI of 10. Medium in each well was removed, 500 μL of diluted virus solution was added to each well of the plate. Plates were incubated with 5% CO2 at 37° C. for 2 hours with gently shaking every 15 minutes. Medium was aspirated, washed with PBS twice, and replaced with fresh medium containing 2% FCS and serially diluted CDV. Cells were incubated with 5% CO2 at 37° C. for 24 hours after infection.
# (§9) Cells were detached with Trypsin-EDTA, and collected by centrifuging. Total DNA was extracted using QIAamp™ DNA Mini Kit according to manufacture's instructions with some modifications: addition of 20 μL of RNaseA in each sample when adding ProK. DNA was eluted by 50˜100 μL of D. W.
# (§10) Concentration of DNA was determined by measuring O.D.260. Each DNA samples was diluted by D. W. at a concentration of 5 ng/μL.
# (§11) Master-mix for E1A primer was prepared using LightCycler™ Faststart DNAMaster SYBR Green™ according to Table 1. Standard DNA was prepared by serially 10 times dilution of pCRII-E1A plasmid (1×10^9, 1×10^8, 1×10^7, 1×10^6, 1×10^5, 1×10^4, and 1×10^3 copies/μL). 2 μL of Sample or Standard DNA was and 18 μL of Master mix were added into capillaries (total volume was 20 μL per capillary).
# (§12) Q-PCR was performed according to the program of Table 2 (LightCycler quicksystem 350S). Results obtained here were analyzed using LightCycler softwere.
# ONYX-015 [3] = test: XTT assay, protection from cytopathic effect of ONYX-015 in H1299 cells; type: cell-based, adenovirus; details: for Protection (%) Ave. / Protection (%): ONYX-015 MOI 10, H1299, 7 days; for Protection (%): single wells, dihydrate
# Experimental: as §1, §2
# as §3, with “0.1 (OBP-401) or 10 (ONYX-015)” for “1 (OBP-301, OBP-202)”, “H1299.” for “H1299 and 5 in A549 (PFU/cell).”, “50” for “150”
# as §4, §5, §6
# TelomeScan (OBP-401) = test: Real-time quantitative PCR, viral E1A copy number, TelomeScan in H1299 cells; type: cell-based, adenovirus; details: for E1A copy number, % (relative to 0 uM) / E1A copy number/ng DNA: TelomeScan MOI 10, H1299, 24 hours
# Experimental: as §7, §8, §9, §10, §11, §12
# Telomelysin (OBP-301) [4] = test: Real-time quantitative PCR, viral E1A copy number, Telomelysin in H1299 cells; type: cell-based, adenovirus; details: for E1A copy number, % (relative to 0 μM) / E1A copy number/ng DNA: Telomelysin MOI 10, H1299, 24 hours
# Experimental: as §7, §8, §9, §10, §11, §12
# [5] = XTT cell viability assay, CDV alone, H1299 cells; type: cell-based; details: human; H1299 cells, XTT; read-out: CC50, CDV concentration that reduce the relative cell viability to 50%
# Experimental: as §1, §2, §3
# as §3, with “0.1 (OBP-401) or 10 (ONYX-015)” for “1 (OBP-301, OBP-202)”, “H1299.” for “H1299 and 5 in A549 (PFU/cell).”, “50” for “150”
# as §4
# Medium in each well of plate was removed, and 150 μL of mixture prepared above was added to each well. Plate was incubated with 5% CO2 at 37° C. for 4 hours, and then calculated absorbance at 450 nm and 690 nm. Protection was determined by the formula below: […]
smiles,measurement,setting,value
"Nc1ccn(C[C@@H](CO)OCP(=O)(O)O)c(=O)n1.O.O [CDV, 1-[(S)-3-hydroxy-2-(phosphonomethoxy)propyl]cytosine dihydrate]",Protection (%) Ave.,Telomelysin (OBP-301) [1]; CDV 0.32 μM,7.983%
same,Protection (%),Telomelysin (OBP-301) [1]; CDV 0.32 μM,10.293% and 11.665% and 3.980% and 5.993%
same,Protection (%) Ave.,Telomelysin (OBP-301) [1]; CDV 1.6 μM,0.274%
same,Protection (%),Telomelysin (OBP-301) [1]; CDV 1.6 μM,3.339% and −5.901% and 1.144% and 2.516%
same,Protection (%) Ave.,Telomelysin (OBP-301) [1]; CDV 8 μM,3.065%
same,Protection (%) Ave.,Telomelysin (OBP-301) [1]; CDV 40 μM,83.829%
same,Protection (%),Telomelysin (OBP-301) [1]; CDV 40 μM,88.243% and 72.049% and 84.950% and 90.073%
same,Protection (%) Ave.,Telomelysin (OBP-301) [1]; CDV 200 μM,29.369%
same,Protection (%),Telomelysin (OBP-301) [1]; CDV 200 μM,29.414% and 30.878% and 28.957% and 28.225%
same,Telomelysin-mediated cytopathic effect,"Telomelysin (OBP-301) [1]; H1299 cells, FIG. 1A",apparently inhibited
same,pEC50,"Telomelysin (OBP-301) [1]; NCI-H1299, Telomelysin, H1299 cells, XTT, read-out: EC50, CDV concentration that archive the protection to 50%",4.69
same,"E1A copy number, % (relative to 0 uM)",ONYX-015 [2]; CDV 0.16 uM,86.98%
same,E1A copy number/ng DNA,ONYX-015 [2]; CDV 0.16 uM,2.291E+07 copy number/ng DNA
same,"E1A copy number, % (relative to 0 uM)",ONYX-015 [2]; CDV 0.8 uM,91.04%
same,E1A copy number/ng DNA,ONYX-015 [2]; CDV 0.8 uM,2.398E+07 copy number/ng DNA
same,"E1A copy number, % (relative to 0 uM)",ONYX-015 [2]; CDV 4 uM,83.71%
same,E1A copy number/ng DNA,ONYX-015 [2]; CDV 4 uM,2.205E+07 copy number/ng DNA
same,"E1A copy number, % (relative to 0 uM)",ONYX-015 [2]; CDV 20 uM,45.10%
same,E1A copy number/ng DNA,ONYX-015 [2]; CDV 20 uM,1.188E+07 copy number/ng DNA
same,"E1A copy number, % (relative to 0 uM)",ONYX-015 [2]; CDV 100 uM,11.20%
same,E1A copy number/ng DNA,ONYX-015 [2]; CDV 100 uM,2.950E+06 copy number/ng DNA
same,Viral E1A copy number,"ONYX-015 [2]; ONYX-015, H1299 cells, dose-dependent manner",reduced
same,Protection (%) Ave.,ONYX-015 [3]; CDV 0.01 μM,−1.092%
same,Protection (%),ONYX-015 [3]; CDV 0.01 μM,−1.284% and −1.233% and −0.822% and −1.027%
same,Protection (%) Ave.,ONYX-015 [3]; CDV 0.06 μM,−0.642%
same,Protection (%),ONYX-015 [3]; CDV 0.06 μM,−0.616% and −0.205% and 0.051% and −1.798%
same,Protection (%) Ave.,ONYX-015 [3]; CDV 0.32 μM,1.516%
same,Protection (%),ONYX-015 [3]; CDV 0.32 μM,3.237% and 4.675% and −0.205% and −1.644%
same,Protection (%) Ave.,ONYX-015 [3]; CDV 1.6 μM,2.646%
same,Protection (%),ONYX-015 [3]; CDV 1.6 μM,4.315% and 1.849% and −1.079% and 5.497%
same,Protection (%) Ave.,ONYX-015 [3]; CDV 8 μM,5.703%
same,Protection (%) Ave.,ONYX-015 [3]; CDV 40 μM,55.420%
same,Protection (%),ONYX-015 [3]; CDV 40 μM,50.912% and 58.926% and 55.536% and 56.306%
same,Protection (%) Ave.,ONYX-015 [3]; CDV 200 μM,11.264%
same,Protection (%),ONYX-015 [3]; CDV 200 μM,10.121% and 16.902% and 9.350% and 8.682%
same,Protection (%) Ave.,ONYX-015 [3]; CDV 1000 μM,−0.783%
same,Protection (%),ONYX-015 [3]; CDV 1000 μM,−2.312% and −2.260% and −2.363% and 3.802%
same,cytopathic effect induced by ONYX-015,"ONYX-015 [3]; H1299 cells, FIG. 2A",apparently inhibited
same,"E1A copy number, % (relative to 0 uM)",TelomeScan (OBP-401); CDV 0.16 uM,103.48%
same,E1A copy number/ng DNA,TelomeScan (OBP-401); CDV 0.16 uM,2.350E+08 copy number/ng DNA
same,"E1A copy number, % (relative to 0 uM)",TelomeScan (OBP-401); CDV 0.8 uM,83.22%
same,E1A copy number/ng DNA,TelomeScan (OBP-401); CDV 0.8 uM,1.890E+08 copy number/ng DNA
same,"E1A copy number, % (relative to 0 uM)",TelomeScan (OBP-401); CDV 4 uM,100.62%
same,E1A copy number/ng DNA,TelomeScan (OBP-401); CDV 4 uM,2.285E+08 copy number/ng DNA
same,"E1A copy number, % (relative to 0 uM)",TelomeScan (OBP-401); CDV 20 uM,70.19%
same,E1A copy number/ng DNA,TelomeScan (OBP-401); CDV 20 uM,1.594E+08 copy number/ng DNA
same,"E1A copy number, % (relative to 0 uM)",TelomeScan (OBP-401); CDV 100 uM,21.83%
same,E1A copy number/ng DNA,TelomeScan (OBP-401); CDV 100 uM,4.957E+07 copy number/ng DNA
same,Viral E1A copy number,"TelomeScan (OBP-401); TelomeScan, H1299 cells, dose-dependent manner",reduced
same,"E1A copy number, % (relative to 0 μM)",Telomelysin (OBP-301) [4]; CDV 0.16 μM,97.60%
same,E1A copy number/ng DNA,Telomelysin (OBP-301) [4]; CDV 0.16 μM,1.461E+08 copy number/ng DNA
same,"E1A copy number, % (relative to 0 μM)",Telomelysin (OBP-301) [4]; CDV 0.8 μM,98.93%
same,E1A copy number/ng DNA,Telomelysin (OBP-301) [4]; CDV 0.8 μM,1.481E+08 copy number/ng DNA
same,"E1A copy number, % (relative to 0 μM)",Telomelysin (OBP-301) [4]; CDV 4 μM,91.32%
same,E1A copy number/ng DNA,Telomelysin (OBP-301) [4]; CDV 4 μM,1.367E+08 copy number/ng DNA
same,"E1A copy number, % (relative to 0 μM)",Telomelysin (OBP-301) [4]; CDV 20 μM,47.07%
same,E1A copy number/ng DNA,Telomelysin (OBP-301) [4]; CDV 20 μM,7.046E+07 copy number/ng DNA
same,"E1A copy number, % (relative to 0 μM)",Telomelysin (OBP-301) [4]; CDV 100 μM,9.99%
same,E1A copy number/ng DNA,Telomelysin (OBP-301) [4]; CDV 100 μM,1.496E+07 copy number/ng DNA
same,pEC50,"Telomelysin (OBP-301) [4]; NCI-H1299, H1299 cells, real-time quantitative PCR, read-out: EC50 (E1A), CDV concentration that reduces the relative E1A copy number of Telomelysin to 50%",4.71
same,Viral E1A copy number,"Telomelysin (OBP-301) [4]; Telomelysin, H1299 cells, dose-dependent manner",reduced
same,CC50 at 7 days,[5],146 µM
